Test results taken from patent publication US10954193B2 (Vanderbilt University, priority 2013, dated 2021).
Where two headings read alike, the source gives them in different places.

Molecular target: recombinant Mcl-1 (residues 172-327) (Homo sapiens (Human), UniProt Q07820)
Assay: Bak peptide binding assay, fluorescence polarization anisotropy competition (FITC-Bak), Mcl-1;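 also: displacement of labeled Bak peptide read by fluorescence anisotropy, 10-point threefold dilutions from 20 µM top dose in 5% DMSO, 90 min incubation at room temperature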
[1] = Table 3, binned ranges, FITC-Bak peptide 10 nM, Mcl-1 14 nM, read-out: Ki for inhibition of Mcl-1

Chain of recombinant Mcl-1 (residues 172-327) (Q07820 172-327): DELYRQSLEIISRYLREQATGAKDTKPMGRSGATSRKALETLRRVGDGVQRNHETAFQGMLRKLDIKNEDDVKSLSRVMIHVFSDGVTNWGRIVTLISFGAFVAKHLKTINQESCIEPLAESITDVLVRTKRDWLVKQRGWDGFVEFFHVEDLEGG
Protocol: Bak Peptide Binding Assay
Compound affinity was measured using a fluorescence polarization anisotropy competition assay. Anisotropy measurements were carried out in 384-well, black, flat-bottom plates (Greiner Bio-one, Monroe, N.C., USA). […] 10 nM FITC-Bak peptide and 14 nM recombinant Mcl-1 (residues 172-327) were added to assay buffer (3 mM dithiothreitol, 50 mM NaCl, 20 mM Tris, pH 7.5).
Compounds are diluted in DMSO in a 10-point, 3-fold serial dilution scheme. 2.5 uL compound is added to 47.5 uL of assay buffer containing FITC-Bak and protein, for a final DMSO concentration of 5% and a top concentration of 20 uM. […] The plate was mixed and incubated for 90 minutes at room temperature. Anisotropy is measured at excitation wavelength 480 nm and emission wavelength 535 nm using an EnVision Multi-label plate reader (PerkinElmer, Wellesley, Mass., USA).

Row | Ki [1] | Compound | Ki
1 | 0.501 to 0.999 µM | CCC(C(=O)O)n1cc(CCCOc2cc(C)c(Cl)c(C)c2)c2ccccc21 (racemic) [Example 52, (±)-2-(3-(3-(4-chloro-3,5-dimethylphenoxy)propyl)-1H-indol-1-yl)butanoic acid] | –
2 | 0.501 to 0.999 µM | Cc1cc(OCCCc2cn(C(C(=O)O)c3ccccc3)c3ccccc23)cc(C)c1Cl (racemic) [Example 53, (±)-2-(3-(3-(4-chloro-3,5-dimethylphenoxy)propyl)-1H-indol-1-yl)-2-phenylacetic acid] | –
3 | 0.501 to 0.999 µM | Cc1cc(OCCCc2cn(C(C)CC(=O)O)c3ccccc23)cc(C)c1Cl (racemic) [Example 55, (±)-3-(3-(3-(4-chloro-3,5-dimethylphenoxy)propyl)-1H-indol-1-yl)butanoic acid] | –
4 | 0.501 to 0.999 µM | Cc1cc(OCCCc2cn(C(CC(=O)O)c3ccccc3)c3ccccc23)cc(C)c1Cl (racemic) [Example 56, (±)-3-(3-(3-(4-chloro-3,5-dimethylphenoxy)propyl)-1H-indol-1-yl)-3-phenylpropanoic acid] | –
5 | 0.501 to 0.999 µM | Cc1cc(OCCCc2cn(C(C)C(=O)NS(C)(=O)=O)c3ccccc23)cc(C)c1Cl (racemic) [Example 59, (±)-2-(3-(3-(4-chloro-3,5-dimethylphenoxy)propyl)-1H-indol-1-yl)-N-(methylsulfonyl)propanamide] | –
6 | 0.501 to 0.999 µM | CCC(C(=O)NS(C)(=O)=O)n1cc(CCCOc2cc(C)c(Cl)c(C)c2)c2ccccc21 (racemic) [Example 60, (±)-2-(3-(3-(4-chloro-3,5-dimethylphenoxy)propyl)-1H-indol-1-yl)-N-(methylsulfonyl)butanamide] | –
7 | 1 to 9.99 µM | O=C(O)Cc1cn(CCCOc2cccc3ccccc23)c2ccccc12 [Example 1, 2-(1-(3-(naphthalen-1-yloxy)propyl)-1H-indol-3-yl)acetic acid] | –
8 | 10 to 50 µM | O=C(O)Cc1cn(CCCOc2ccc3ccccc3c2)c2ccccc12 [Example 2, 2-(1-(3-(naphthalen-2-yloxy)propyl)-1H-indol-3-yl)acetic acid] | –
9 | 1 to 9.99 µM | Cc1cc(OCCCn2cc(CC(=O)NS(C)(=O)=O)c3ccccc32)cc(C)c1Cl [Example 4, 2-(1-(3-(4-chloro-3,5-dimethylphenoxy)propyl)-1H-indol-3-yl)-N-(methylsulfonyl)acetamide] | –
10 | 0.501 to 0.999 µM | Cc1cc(OCCCc2cn(CC(=O)O)c3ccccc23)cc(C)c1Cl [Example 5, 2-(3-(3-(4-chloro-3,5-dimethylphenoxy)propyl)-1H-indol-1-yl)acetic acid] | –
11 | 1 to 9.99 µM | O=C(O)Cn1cc(CCCOc2cccc3ccccc23)c2ccccc21 [Example 6, 2-(3-(3-(naphthalen-1-yloxy)propyl)-1H-indol-1-yl)acetic acid] | –
12 | 1 to 9.99 µM | O=C(O)Cn1cc(CCCOc2cccc3ccccc23)c2ccc(Cl)cc21 [Example 8, 2-(6-chloro-3-(3-(naphthalen-1-yloxy)propyl)-1H-indol-1-yl)acetic acid] | –
13 | 0.501 to 0.999 µM | Cc1cc(OCCCc2cn(CC(=O)O)c3cccc(Cl)c23)cc(C)c1Cl [Example 9, 2-(4-chloro-3-(3-(4-chloro-3,5-dimethylphenoxy)propyl)-1H-indol-1-yl)acetic acid] | –
14 | 1 to 9.99 µM | O=C(O)Cn1cc(CCCOc2cccc3ccccc23)c2c(Cl)cccc21 [Example 10, 2-(4-chloro-3-(3-(naphthalen-1-yloxy)propyl)-1H-indol-1-yl)acetic acid] | –
15 | 1 to 9.99 µM | O=C(O)CCn1cc(CCCOc2cccc3ccccc23)c2ccccc21 [Example 11, 3-(3-(3-(naphthalen-1-yloxy)propyl)-1H-indol-1-yl)propanoic acid] | –
16 | 0.101 to 0.299 µM | Cc1cc(OCCCc2cn(CCC(=O)O)c3cc(Cl)ccc23)cc(C)c1Cl [Example 13, 3-(6-chloro-3-(3-(4-chloro-3,5-dimethylphenoxy)propyl)-1H-indol-1-yl)propanoic acid] | –
17 | 1 to 9.99 µM | O=C(O)CCn1cc(CCCOc2cccc3ccccc23)c2c(Cl)cccc21 [Example 16, 3-(4-chloro-3-(3-(naphthalen-1-yloxy)propyl)-1H-indol-1-yl)propanoic acid] | –
18 | 1 to 9.99 µM | Cc1cc(OCC(C)Cc2cn(CCC(=O)O)c3ccccc23)cc(C)c1Cl (stereo not drawn) [Example 17, 3-(3-(3-(4-chloro-3,5-dimethylphenoxy)-2-methylpropyl)-1H-indol-1-yl)propanoic acid] | –
19 | 1 to 9.99 µM | Cc1cc(OCCCc2cn(CCC(=O)NS(C)(=O)=O)c3ccccc23)cc(C)c1Cl [Example 18, 3-(3-(3-(4-chloro-3,5-dimethylphenoxy)propyl)-1H-indol-1-yl)-N-(methylsulfonyl)propanamide] | –
20 | 1 to 9.99 µM | CS(=O)(=O)NC(=O)CCn1cc(CCCOc2cccc3ccccc23)c2ccccc21 [Example 19, 3-(3-(3-(naphthalen-1-yloxy)propyl)-1H-indol-1-yl)-N-(methylsulfonyl)propanamide] | –

Row | Ki [1] | Compound | Ki
21 | 0.501 to 0.999 µM | CS(=O)(=O)NC(=O)CCn1cc(CCCOc2cccc3ccccc23)c2ccc(Cl)cc21 [Example 21, 3-(6-chloro-3-(3-(naphthalen-1-yloxy)propyl)-1H-indol-1-yl)-N-(methylsulfonyl)propanamide] | –
22 | 1 to 9.99 µM | CS(=O)(=O)NC(=O)CCn1cc(CCCOc2cccc3ccccc23)c2c(Cl)cccc21 [Example 23, 3-(4-chloro-3-(3-(naphthalen-1-yloxy)propyl)-1H-indol-1-yl)-N-(methylsulfonyl)propanamide] | –
23 | 1 to 9.99 µM | CS(=O)(=O)NC(=O)Cn1cc(CCCOc2cccc3ccccc23)c2ccccc21 [Example 24, N-(methylsulfonyl)-2-(3-(3-(naphthalen-1-yloxy)propyl)-1H-indol-1-yl)acetamide] | –
24 | 1 to 9.99 µM | CS(=O)(=O)NC(=O)Cn1cc(CCCOc2cccc3ccccc23)c2c(Cl)cccc21 [Example 28, 2-(4-chloro-3-(3-(naphthalen-1-yloxy)propyl)-1H-indol-1-yl)-N-(methylsulfonyl)acetamide] | –
25 | 0.301 to 0.5 µM | Cc1cc(OCCCc2cn(CCC(=O)O)c3c(Br)cccc23)cc(C)c1Cl [Example 29, 3-(7-bromo-3-(3-(4-chloro-3,5-dimethylphenoxy)propyl)-1H-indol-1-yl)propanoic acid] | –
26 | 0.101 to 0.299 µM | Cc1cc(OCCCc2cn(CCC(=O)O)c3c(-c4c(COc5ccccc5)nn(C)c4C)cccc23)cc(C)c1Cl [Example 30, 3-(3-(3-(4-chloro-3,5-dimethylphenoxy)propyl)-7-(1,5-dimethyl-3-(phenoxymethyl)-1H-pyrazol-4-yl)-1H-indol-1-yl)propanoic acid] | –
27 | 0.301 to 0.5 µM | Cc1cc(OCCCc2cn(CCC(=O)O)c3c(-c4ccccc4)cccc23)cc(C)c1Cl [Example 31, 3-(3-(3-(4-chloro-3,5-dimethylphenoxy)propyl)-7-phenyl-1H-indol-1-yl)propanoic acid] | –
28 | 0.501 to 0.999 µM | Cc1cc(OCCCc2cn(CCC(=O)O)c3c(-c4cccnc4)cccc23)cc(C)c1Cl [Example 33, 3-(3-(3-(4-chloro-3,5-dimethylphenoxy)propyl)-7-(pyridin-3-yl)-1H-indol-1-yl)propanoic acid] | –
29 | 0.101 to 0.299 µM | Cc1cc(OCCCc2cn(CCC(=O)O)c3c(-c4cc[nH]n4)cccc23)cc(C)c1Cl [Example 35, 3-(3-(3-(4-chloro-3,5-dimethylphenoxy)propyl)-7-(1H-pyrazol-3-yl)-1H-indol-1-yl)propanoic acid] | –
30 | 0.101 to 0.299 µM | Cc1cc(OCCCc2cn(CCC(=O)O)c3c(-c4cn[nH]c4)cccc23)cc(C)c1Cl [Example 36, 3-(3-(3-(4-chloro-3,5-dimethylphenoxy)propyl)-7-(1H-pyrazol-4-yl)-1H-indol-1-yl)propanoic acid] | –
31 | – | Cc1cc(OCCCc2cn(CCC(=O)NS(=O)(=O)c3ccccc3)c3cc(Cl)ccc23)cc(C)c1Cl [Example 37, 3-(6-chloro-3-(3-(4-chloro-3,5-dimethylphenoxy)propyl)-1H-indol-1-yl)-N-(phenylsulfonyl)propanamide] | 0.101 to 0.299 µM
32 | 0.301 to 0.5 µM | Cc1cc(OCCCc2cn(CCC(=O)NS(=O)(=O)Cc3ccccc3)c3cc(Cl)ccc23)cc(C)c1Cl [Example 38, N-(benzylsulfonyl)-3-(6-chloro-3-(3-(4-chloro-3,5-dimethylphenoxy)propyl)-1H-indol-1-yl)propanamide] | –
33 | 0.301 to 0.5 µM | Cc1cc(OCCCc2cn(CCC(=O)NS(=O)(=O)C3CC3)c3cc(Cl)ccc23)cc(C)c1Cl [Example 39, 3-(6-chloro-3-(3-(4-chloro-3,5-dimethylphenoxy)propyl)-1H-indol-1-yl)-N-(cyclopropylsulfonyl)propanamide] | –
34 | 0.301 to 0.5 µM | Cc1cc(OCCCc2cn(CCC(=O)NS(=O)(=O)c3ccc(Oc4ccccc4)cc3)c3cc(Cl)ccc23)cc(C)c1Cl [Example 40, 3-(6-chloro-3-(3-(4-chloro-3,5-dimethylphenoxy)propyl)-1H-indol-1-yl)-N-((4-phenoxyphenyl)sulfonyl)propanamide] | –
35 | 0.101 to 0.299 µM | COc1ccc(Oc2ccc(S(=O)(=O)NC(=O)CCn3cc(CCCOc4cc(C)c(Cl)c(C)c4)c4ccc(Cl)cc43)cc2)cc1 [Example 41, 3-(6-chloro-3-(3-(4-chloro-3,5-dimethylphenoxy)propyl)-1H-indol-1-yl)-N-((4-(4-methoxyphenoxy)phenyl)sulfonyl)propanamide] | –
36 | ≤ 0.1 µM | Cc1cc(OCCCc2c(C)n(CCC(=O)NS(C)(=O)=O)c3cc(Cl)ccc23)cc(C)c1Cl [Example 46, 3-(6-chloro-3-(3-(4-chloro-3,5-dimethylphenoxy)propyl)-2-methyl-1H-indol-1-yl)-N-(methylsulfonyl)propanamide] | –
37 | 0.501 to 0.999 µM | Cc1cc(OCCCc2c(C#N)n(CCC(=O)O)c3ccccc23)cc(C)c1Cl [Example 48, 3-(3-(3-(4-chloro-3,5-dimethylphenoxy)propyl)-2-cyano-1H-indol-1-yl)propanoic acid] | –
38 | 1 to 9.99 µM | Cc1cc(OCCCc2c(C#N)n(CC(=O)NS(C)(=O)=O)c3ccccc23)cc(C)c1Cl [Example 50, 2-(3-(3-(4-chloro-3,5-dimethylphenoxy)propyl)-2-cyano-1H-indol-1-yl)-N-(methylsulfonyl)acetamide] | –
39 | 1 to 9.99 µM | Cc1cc(OCCn2cc(CC(=O)O)c3ccccc32)cc(C)c1Cl [Example 62, 2-(1-(2-(4-chloro-3,5-dimethylphenoxy)ethyl)-1H-indol-3-yl)acetic acid] | –
